Laboratory results from ChEMBL document CHEMBL1128833, “Aliphatic replacements of the biphenyl moiety of the nonpeptidyl growth hormone secretagogues L-692,429 and L-692,585” (1995).

Organism: Rattus norvegicus
Assay: In vitro Growth hormone releasing activity in rat pituitary cells
Assay type: functional, Pituitary gland cell
Settings: Rattus norvegicus, Pituitary gland cell; read-out: ED50 (the source's name)
Compound `CC(C)(N)CC(=O)N[C@@H]1CCc2ccccc2N(Cc2ccc(-c3ccccc3)cc2)C1=O` has an EC50 of 3000 nM.
With `CC(C)(N)CC(=O)N[C@@H]1CCc2ccccc2N(CC2CCC(c3ccccc3-c3nn[nH]n3)CC2)C1=O` (stereo partly specified) the EC50 was 860 nM.
Compound `CC(C)(N)CC(=O)N[C@@H]1CCc2ccccc2N(Cc2ccc(-c3ccccc3-c3nn[nH]n3)cc2)C1=O` has an EC50 of 60 nM.
With `CC(C)(N)CC(=O)N[C@@H]1CCc2ccccc2N(Cc2ccccc2)C1=O` the EC50 was 7000 nM.
With `C[C@@H](O)CNC(C)(C)CC(=O)N[C@@H]1CCc2ccccc2N(Cc2ccc(-c3ccccc3-c3nn[nH]n3)cc2)C1=O` [L-692585] the EC50 was 3 nM.
Compound `C[C@@H](O)CNC(C)(C)CC(=O)N[C@@H]1CCc2ccccc2N(CC2CCC(c3ccccc3-c3nn[nH]n3)CC2)C1=O` (stereo partly specified) has an EC50 of 75 nM.

Same assay, conditions: read-out: ED50 (the source's name)
With `CC(C)(N)CC(=O)N[C@@H]1CCc2ccccc2N(CC2=CCC(c3ccccc3-c3nn[nH]n3)CC2)C1=O` (stereo in doubt; 35) the EC50 was 120 nM.
Work on `C[C@@H](O)CNC(C)(C)CC(=O)N[C@@H]1CCc2ccccc2N(CC2=CCC(c3ccccc3-c3nn[nH]n3)CC2)C1=O` (stereo in doubt; 37) yielded an EC50 of 7 nM.
`CC(C)(N)CC(=O)N[C@@H]1CCc2ccccc2N(CC2=CCC(c3ccccc3-c3nn[nH]n3)CC2)C1=O` (stereo in doubt; 34) gave an EC50 of 1200 nM.
In the case of `C[C@@H](O)CNC(C)(C)CC(=O)N[C@@H]1CCc2ccccc2N(CC2=CCC(c3ccccc3-c3nn[nH]n3)CC2)C1=O` (stereo in doubt; 36), the EC50 is reported as 25 nM.

Organism: Rattus norvegicus
Assay: In vitro Growth hormone releasing activity in rat pituitary cells; weakly active at 1 uM
Assay type: functional
Settings: Pituitary gland cell, read-out: ED50 (the source's name)
With `CC(C)(N)CC(=O)N[C@@H]1CCc2ccccc2N(Cc2ccc(-c3ccccc3)c(-c3nn[nH]n3)c2)C1=O` the EC50 was > 1000 nM.
